In US10039752B2 (Cipla Limited, priority 2016, dated 2018):
Like-named read-outs stand apart in the source and are kept apart here.

Columns and labels:
[1] = system: human pancreatic cancer xenografts (PDX model PAXF 546); test: In vivo animal efficacy study; set-up: species or system Nude mice; conditions: for Mean Tumor volume: methazolamide 60 mg/kg p.o., gemcitabine 50 mg/kg i.v. Q7D, in mm³; for tumor growth inhibition: methazolamide 60 mg/kg orally, gemcitabine 50 mg/kg i.v.
[2] = system: PAXF 1986L, PAXF 546L, PAXF Capan-2, and PAXF MIA-Pa-Ca-2; test: cells; conditions: Homo sapiens, 192 h, read-out: relative IC50 values, range over four cell lines
Method: The clonogenic assay was carried out in a 96 well plate format using ultra low attachment plates. For each test cells were prepared as described above, and assay plates were prepared as follows: each test well contained a layer of semi-solid medium with tumor cells (50 μl), and a second layer of medium supernatant with or without test compounds (100 μl). […] The soft-agar layer was immediately covered with 90 μl of the same culture medium without agar. After 24 hour the test compounds were added after serial dilution in IMDM and transfer in cell culture medium, and left on the cells for the duration of the experiment (continuous exposure, 100 μL total drug overlay). Every plate included six untreated control wells and drug-treated groups in a layout as shown above. […] Within this period, ex vivo tumor growth led to the formation of colonies with a diameter of >50 μm. At the time of maximum colony formation, counts were performed with an automatic image analysis system (CellInsight NXT, Thermo Scientific). 48 hours prior to evaluation, vital colonies were stained with a sterile aqueous solution of 2-(4-iodophenyl)-3-(4-nitrophenyl)-5-phenyltetrazolium chloride (1 mg/ml, 100 μl/well).

PAXF 1986L = test: In vitro 2-D assay (CellTiter-Blue cell viability, 96 h); type: cell-based; conditions: Homo sapiens, PAXF 1986, 96 hours treatment
Description: (§1) PAXF 546L, PAXF 1986L, PAXF 1998L, PAXF 2005L and PAXF 2059L were established at Oncotest from the corresponding human patient derived xenograft. CAPAN-2, HUP-T3 and PA-TU-8902 were purchased from DSMZ (Braunschweig, Germany). PANC-1 was purchased from CLS Cell Line Services GmbH (Eppelheim, Germany). BxPC-3, HPAC and MIA-Pa-Ca-2 were purchased from ATCC (Rockville, Md., USA). Authenticity of cell lines was confirmed at the DSMZ by STR (short tandem repeat) analysis, a PCR based DNA-fingerprinting methodology. Cell lines were routinely passaged once or twice weekly and maintained in culture for up to 20 passages. All cells were grown at 37° C. in a humidified atmosphere with 5% CO2 in RPMI 1640 medium (25 mM HEPES, with L-glutamine, #FG1385, Biochrom, Berlin, Germany) supplemented with 10% (v/v) fetal calf serum (Sigma, Taufkirchen, Germany) and 0.1 mg/mL gentamicin (Life Technologies, Karlsruhe, Germany).
(§2) The CellTiter-Blue® Cell Viability Assay (#G8081, Promega) was used according to manufacturer's instructions. Briefly, cells were harvested from exponential phase cultures, counted and plated in 96-well flat-bottom microtiter plates at a cell density of 6,000-20,000 cells/well depending on the cell line's growth rate. After a 24 hours recovery period to allow the cells to resume exponential growth, test compounds were added. […] After 96 hours treatment of cells, 20 μL/well CellTiter-Blue® reagent was added. Following an incubation period of up to four hours, fluorescence (FU) was measured by using the Enspire Multimode Plate Reader (excitation λ=531 nm, emission λ=615 nm). For calculations, the mean values of duplicate/quadruplicate (untreated control) data were used. Sigmoidal concentration-response curves were fitted to the data points (T/C values) obtained for each cell line using 4 parameter non-linear curve fit (Oncotest Warehouse Software).

PAXF 1998L = test: as above; type: cell-based; conditions: Homo sapiens, PAXF 1998, 96 hours treatment
Description: as §1, §2

PAXF 2005L = test: as above; type: cell-based; conditions: Homo sapiens, PAXF 2005, 96 hours treatment
Description: as §1, §2

PAXF 2059L = test: as above; type: cell-based; conditions: Homo sapiens, PAXF 2059, 96 hours treatment
Description: as §1, §2

PAXF 546L = test: as above; type: cell-based; conditions: Homo sapiens, PAXF 546, 96 hours treatment
Description: as §1, §2

PAXF BxPC-3 [3] = test: as above; type: cell-based; conditions: Homo sapiens, PAXF BxPC-3, 96 hours treatment
Description: as §1, §2

PAXF CAPAN-2 [4] = test: as above; type: cell-based; conditions: Homo sapiens, PAXF CAPAN-2, 96 hours treatment
Description: as §1, §2

PAXF HPAC [5] = test: as above; type: cell-based; conditions: Homo sapiens, 96 hours treatment
Description: as §1, §2

PAXF HUP-T3 = test: as above; type: cell-based; conditions: Homo sapiens, PAXF HUP-T3, 96 hours treatment
Description: as §1, §2

PAXF PA-TU-8902 [6] = test: as above; type: cell-based; conditions: Homo sapiens, PaTu 8902, PAXF PA-TU-8902, 96 hours treatment
Description: as §1, §2

PAXF PANC-1 [7] = test: as above; type: cell-based; conditions: Homo sapiens, PAXF PANC-1, 96 hours treatment
Description: as §1, §2

PAXF MIA-Pa-Ca-2 [8] = test: cells; conditions: Homo sapiens, MIA PaCa-2, 96 h
Description: as §1, §2

[9] = system: twelve selected human pancreatic cancer cell lines; test: cells; conditions: for IC50: Homo sapiens, Pancreatic cancer cell
Description: as §1, §2

PAXF 1982 = test: In vitro 3D clonogenic assay; type: cell-based; conditions: Homo sapiens
Description: (§3) Cell lines were routinely passaged one or twice weekly.

PAXF 1986 = test: In vitro 3D clonogenic assay; type: cell-based; conditions: Homo sapiens
Description: as §3

PAXF 2005 = test: In vitro 3D clonogenic assay; type: cell-based; conditions: Homo sapiens
Description: as §3

PAXF 2059 = test: In vitro 3D clonogenic assay; type: cell-based; conditions: Homo sapiens
Description: as §3

PAXF 546 = test: In vitro 3D clonogenic assay; type: cell-based; conditions: Homo sapiens
Description: as §3

PAXF BxPC-3 [10] = test: In vitro 3D clonogenic assay; type: cell-based; conditions: Homo sapiens
Description: as §3

PAXF CAPAN-2 [11] = test: In vitro 3D clonogenic assay; type: cell-based; conditions: Homo sapiens
Description: as §3

PAXF HPAC [12] = test: In vitro 3D clonogenic assay; type: cell-based; conditions: Homo sapiens
Description: as §3

PAXF PA-TU-8902 [13] = test: In vitro 3D clonogenic assay; type: cell-based; conditions: Homo sapiens
Description: as §3

PAXF PANC-1 [14] = test: In vitro 3D clonogenic assay; type: cell-based; conditions: Homo sapiens
Description: as §3

PAXF MIA-Pa-Ca-2 [15] = test: cells; conditions: Homo sapiens
Method: as §3
Tumor xenografts (patient-derived, as well as cell line-derived xenografts) were passaged as subcutaneous xenografts in NMRI nu/nu mice. […] The percentage of viable cells was determined in a Neubauer-hemocytometer using trypan blue exclusion. Aliquots of the cells were frozen down, and stored in liquid nitrogen. On each day of an experiment, a frozen aliquot of tumor cells was thawed and used for preparation of assay plates.

[16] = system: 11 human tumor xenograft-derived cell suspensions or tumor cell lines of pancreatic cancer; test: In vitro 3D clonogenic assay, whole panel (geometric mean); type: cell-based
Description: as §3

Nc1ccn([C@@H]2O[C@H](CO)[C@@H](O)C2(F)F)c(=O)n1 [Gemcitabine, gemcitabine]
Mean Tumor volume ([1]; day 1): 119.84 | Mean Tumor volume ([1]; day 3): 172.26 | Mean Tumor volume ([1]; day 9): 214.28 | Mean Tumor volume ([1]; day 12): 262.19 | Mean Tumor volume ([1]; day 15): 312.84 | Mean Tumor volume ([1]; day 18): 334.59 | Mean Tumor volume ([1]; day 21): 382.57 | Mean Tumor volume ([1]; day 24): 454.56 | Mean Tumor volume ([1]; day 28): 592.69 | Mean Tumor volume ([1]; day 31): 648.88 | Mean Tumor volume ([1]; day 34): 696.91 | tumor growth inhibition [1]: 61% | IC50 [2]: 0.013 to 0.062 µM

CC(=O)N=c1sc(S(N)(=O)=O)nn1C [Methazolamide, N-[5-(aminosulfonyl)-3-methyl-1,3,4-thiadiazol-2(3H)-ylidene]acetamide]
IC50 (PAXF 1986L; read-out: Absolute IC50): 1850 µM | IC50 (PAXF 1986L; read-out: Relative IC50): 1670 µM | IC50 (PAXF 1998L; read-out: Absolute IC50): 2510 µM | IC50 (PAXF 1998L; read-out: Relative IC50): 2230 µM | IC50 (PAXF 2005L; read-out: Absolute IC50): 1840 µM | IC50 (PAXF 2005L; read-out: Relative IC50): 1580 µM | IC50 (PAXF 2059L; read-out: Absolute IC50): 2040 µM | IC50 (PAXF 2059L; read-out: Relative IC50): 1790 µM | IC50 (PAXF 546L; read-out: Absolute IC50): 2320 µM | IC50 (PAXF 546L; read-out: Relative IC50): 3050 µM | IC50 (PAXF BxPC-3 [3]; read-out: Absolute IC50): 1960 µM | IC50 (PAXF BxPC-3 [3]; read-out: Relative IC50): 2340 µM | IC50 (PAXF CAPAN-2 [4]; read-out: Absolute IC50): 2030 µM | IC50 (PAXF CAPAN-2 [4]; read-out: Relative IC50): 2040 µM | IC50 (PAXF HPAC [5]; read-out: Absolute IC50): 5350 µM | IC50 (PAXF HPAC [5]; read-out: Relative IC50): 5510 µM | IC50 (PAXF HUP-T3; read-out: Absolute IC50): 726 µM | IC50 (PAXF HUP-T3; read-out: Relative IC50): 711 µM | IC50 (PAXF PA-TU-8902 [6]; read-out: Absolute IC50): 1030 µM | IC50 (PAXF PA-TU-8902 [6]; read-out: Relative IC50): 1130 µM | IC50 (PAXF PANC-1 [7]; read-out: Absolute IC50): 1540 µM | IC50 (PAXF PANC-1 [7]; read-out: Relative IC50): 1590 µM | IC50 (PAXF MIA-Pa-Ca-2 [8]; read-out: Absolute IC50): 1520 µM | IC50 (PAXF MIA-Pa-Ca-2 [8]; read-out: Relative IC50): 1760 µM | activity, shape of concentration-effect curves ([9]; 2-D, all cell lines tested): concentration-dependent activity with sigmoidal concentration-effect curves | IC50 ([9]; read-out: Absolute IC50, Geometric Mean): 1840 µM | IC50 ([9]; read-out: Individual IC50 values, range over cell lines): 726 to 5350 µM | IC50 ([9]; read-out: Relative IC50, Geometric Mean): 1880 µM | IC50 (PAXF 1982; read-out: Absolute IC50): 703 µM | IC50 (PAXF 1982; read-out: Relative IC50): 725 µM | IC50 (PAXF 1986; read-out: Absolute IC50): 464 µM | IC50 (PAXF 1986; read-out: Relative IC50): 486 µM | IC50 (PAXF 2005; read-out: Absolute IC50): 523 µM | IC50 (PAXF 2005; read-out: Relative IC50): 603 µM | IC50 (PAXF 2059; read-out: Absolute IC50): 820 µM | IC50 (PAXF 2059; read-out: Relative IC50): 754 µM | IC50 (PAXF 546; PAXF546, read-out: Absolute IC50): 346 µM | IC50 (PAXF 546; PAXF546, read-out: Relative IC50): 336 µM | IC50 (PAXF BxPC-3 [10]; read-out: Absolute IC50): 837 µM | IC50 (PAXF BxPC-3 [10]; read-out: Relative IC50): 808 µM | IC50 (PAXF CAPAN-2 [11]; read-out: Absolute IC50): 568 µM | IC50 (PAXF CAPAN-2 [11]; read-out: Relative IC50): 620 µM | IC50 (PAXF HPAC [12]; read-out: Absolute IC50): 1360 µM | IC50 (PAXF HPAC [12]; read-out: Relative IC50): 1090 µM | IC50 (PAXF PA-TU-8902 [13]; PaTu 8902, read-out: Absolute IC50): 2110 µM | IC50 (PAXF PA-TU-8902 [13]; PaTu 8902, read-out: Relative IC50): 2580 µM | IC50 (PAXF PANC-1 [14]; read-out: Absolute IC50): 1760 µM | IC50 (PAXF PANC-1 [14]; read-out: Relative IC50): 1820 µM | IC50 (PAXF MIA-Pa-Ca-2 [15]; MIA PaCa-2, read-out: Absolute IC50): 533 µM | IC50 (PAXF MIA-Pa-Ca-2 [15]; MIA PaCa-2, read-out: Relative IC50): 489 µM | IC50 ([16]; read-out: Absolute IC50, Geometric mean): 777 µM | IC50 ([16]; read-out: Relative IC50, Geometric mean): 783 µM | Mean Tumor volume ([1]; day 1): 94.47 | Mean Tumor volume ([1]; day 3): 121.60 | Mean Tumor volume ([1]; day 9): 151.64 | Mean Tumor volume ([1]; day 12): 189.82 | Mean Tumor volume ([1]; day 15): 253.64 | Mean Tumor volume ([1]; day 18): 341.73 | Mean Tumor volume ([1]; day 21): 470.79 | Mean Tumor volume ([1]; day 24): 583.90 | Mean Tumor volume ([1]; day 28): 718.08 | Mean Tumor volume ([1]; day 31): 836.82 | Mean Tumor volume ([1]; day 34): 916.02 | tumor growth inhibition [1]: up to 50% | IC50 [2]: 297 to 806 µM
